Experimental data taken from the NIST ThermoML archive (doi:10.1016/j.fluid.2008.04.003).
Numbers after ± are expanded uncertainties.

Assay: wn = mass fraction of the nth substance listed
Details: 101 kPa, Liquid; for viscosity: Capillary tube (Ostwald / Ubbelohde) method

**Q.** For `NC(CO)(CO)CO` [2-amino-2-(hydroxymethyl)-1,3-propanediol] + O, which viscosity (283.15 K, w1 = 0.0015) is on record?
**A.** 1.315 ± 0.012 mPa·s

**Q.** What about the viscosity (283.15 K, w1 = 0.005) of the same molecule?
**A.** 1.354 ± 0.012 mPa·s

**Q.** What about the viscosity (283.15 K, w1 = 0.01) of the same molecule?
**A.** 1.36 ± 0.012 mPa·s

**Q.** And the viscosity (283.15 K, w1 = 0.025)?
**A.** 1.422 ± 0.013 mPa·s

**Q.** And the viscosity (283.15 K, w1 = 0.1)?
**A.** 1.802 ± 0.016 mPa·s

**Q.** What about the mass density (283.15 K, w1 = 0.0015) of the same molecule?
**A.** 1000.5 ± 1.1 kg/m3

**Q.** And the mass density (283.15 K, w1 = 0.005)?
**A.** 1001.6 ± 1.1 kg/m3

**Q.** And the mass density (283.15 K, w1 = 0.01)?
**A.** 1002.4 ± 1.1 kg/m3

**Q.** And the mass density (283.15 K, w1 = 0.025)?
**A.** 1006.8 ± 1.1 kg/m3

**Q.** What about the mass density (283.15 K, w1 = 0.1) of the same molecule?
**A.** 1026.2 ± 1.1 kg/m3

**Q.** And the mass density (288.15 K, w1 = 0.0015)?
**A.** 999.9 ± 1.1 kg/m3

**Q.** What about the mass density (288.15 K, w1 = 0.005) of the same molecule?
**A.** 1001.3 ± 1.1 kg/m3

**Q.** What about the mass density (288.15 K, w1 = 0.01) of the same molecule?
**A.** 1001.8 ± 1.1 kg/m3

**Q.** What about the mass density (288.15 K, w1 = 0.025) of the same molecule?
**A.** 1006 ± 1.1 kg/m3

**Q.** What about the mass density (288.15 K, w1 = 0.1) of the same molecule?
**A.** 1025 ± 1.1 kg/m3

**Q.** What about the mass density (293.15 K, w1 = 0.0015) of the same molecule?
**A.** 999.1 ± 1 kg/m3

**Q.** And the mass density (293.15 K, w1 = 0.005)?
**A.** 1000.5 ± 1 kg/m3

**Q.** What about the mass density (293.15 K, w1 = 0.01) of the same molecule?
**A.** 1001 ± 1 kg/m3

**Q.** And the mass density (293.15 K, w1 = 0.025)?
**A.** 1005.1 ± 1.1 kg/m3

**Q.** What about the mass density (293.15 K, w1 = 0.1) of the same molecule?
**A.** 1023.8 ± 1.1 kg/m3

**Q.** And the viscosity (298.15 K, w1 = 0.0015)?
**A.** 0.905 ± 0.009 mPa·s

**Q.** What about the viscosity (298.15 K, w1 = 0.005) of the same molecule?
**A.** 0.913 ± 0.009 mPa·s

**Q.** What about the viscosity (298.15 K, w1 = 0.01) of the same molecule?
**A.** 0.917 ± 0.009 mPa·s

**Q.** And the viscosity (298.15 K, w1 = 0.025)?
**A.** 0.959 ± 0.009 mPa·s

**Q.** What about the viscosity (298.15 K, w1 = 0.1) of the same molecule?
**A.** 1.173 ± 0.011 mPa·s

**Q.** What about the mass density (298.15 K, w1 = 0.0015) of the same molecule?
**A.** 997.9 ± 1.1 kg/m3

**Q.** What about the mass density (298.15 K, w1 = 0.005) of the same molecule?
**A.** 999.4 ± 1.1 kg/m3

**Q.** What about the mass density (298.15 K, w1 = 0.01) of the same molecule?
**A.** 1000 ± 1.1 kg/m3

**Q.** What about the mass density (298.15 K, w1 = 0.025) of the same molecule?
**A.** 1003.8 ± 1.1 kg/m3

**Q.** And the mass density (298.15 K, w1 = 0.1)?
**A.** 1022.4 ± 1.1 kg/m3

**Q.** And the mass density (303.15 K, w1 = 0.0015)?
**A.** 996.6 ± 1.1 kg/m3

**Q.** And the mass density (303.15 K, w1 = 0.005)?
**A.** 997.8 ± 1.1 kg/m3

**Q.** What about the mass density (303.15 K, w1 = 0.01) of the same molecule?
**A.** 998.7 ± 1.1 kg/m3

**Q.** And the mass density (303.15 K, w1 = 0.025)?
**A.** 1002.3 ± 1.1 kg/m3

**Q.** And the mass density (303.15 K, w1 = 0.1)?
**A.** 1020.8 ± 1.1 kg/m3

**Q.** And the mass density (308.15 K, w1 = 0.0015)?
**A.** 995 ± 1.2 kg/m3

**Q.** And the mass density (308.15 K, w1 = 0.005)?
**A.** 996 ± 1.2 kg/m3

**Q.** And the mass density (308.15 K, w1 = 0.01)?
**A.** 997.2 ± 1.2 kg/m3

**Q.** And the mass density (308.15 K, w1 = 0.025)?
**A.** 1000.7 ± 1.2 kg/m3

**Q.** And the mass density (308.15 K, w1 = 0.1)?
**A.** 1019.4 ± 1.2 kg/m3

**Q.** What about the viscosity (313.15 K, w1 = 0.0015) of the same molecule?
**A.** 0.656 ± 0.007 mPa·s

**Q.** What about the viscosity (313.15 K, w1 = 0.005) of the same molecule?
**A.** 0.662 ± 0.007 mPa·s

**Q.** And the viscosity (313.15 K, w1 = 0.01)?
**A.** 0.669 ± 0.007 mPa·s

**Q.** And the viscosity (313.15 K, w1 = 0.025)?
**A.** 0.696 ± 0.007 mPa·s

**Q.** What about the viscosity (313.15 K, w1 = 0.1) of the same molecule?
**A.** 0.857 ± 0.008 mPa·s

**Q.** And the mass density (313.15 K, w1 = 0.0015)?
**A.** 993.1 ± 1.2 kg/m3

**Q.** What about the mass density (313.15 K, w1 = 0.005) of the same molecule?
**A.** 993.6 ± 1.2 kg/m3

**Q.** And the mass density (313.15 K, w1 = 0.01)?
**A.** 995.4 ± 1.2 kg/m3

**Q.** What about the mass density (313.15 K, w1 = 0.025) of the same molecule?
**A.** 998.7 ± 1.2 kg/m3

**Q.** What about the mass density (313.15 K, w1 = 0.1) of the same molecule?
**A.** 1017.7 ± 1.2 kg/m3
